Here are results for 35 molecules from patent US20260265190A1, “AROMATIC COMPOUNDS FOR USE AS PROTEIN PHOSPHATASE 2A (PP2A) MODULATORS” (RAPPTA THERAPEUTICS OY, priority 2022, published 2026).

The test system of the first assay is LNCaP cells. The assay can be described thus: Cell viability assay (MTS), LNCaP cell line. The note with it: Homo sapiens, 48 hours. The class given is cell-based. How it is done:
LNCaP cell line was used for the cell viability assay. LNCaP cells were plated in 96-well plates at a density of 5000 cells per well. After 24 hours of plating, the cells were treated with increasing doses of compound (e.g., compounds 1-38) ranging from 1 μM to 80 μM. Relative cell numbers were analyzed after 48 hours using 3-(4,5-dimethylthiazol-2-yl)-5-(3-carboxymethoxyphenyl)-2-(4-sulfophenyl)-2H-tetrazolium (MTS) assay (Promega) according to the manufacturer's instructions.
(§1) The cell viability data was analyzed with GraphPad Prism software. The values were log transformed and analyzed with non-linear regression (curve-fit) using log (inhibitor) vs. response—variable slope (four parameters) and constraining the bottom to equal zero. Unless otherwise indicated, the GI50 values provided in Table 1 correspond to the LNCaP cell viability assays.
The molecule `Cc1cc(C2(NS(=O)(=O)c3ccc(OC(F)(F)F)cc3)CCNCC2)ccc1Cl` [Example 4, N-(4-(4-chloro-3-methylphenyl)piperidin-4-yl)-4-(trifluoromethoxy)benzenesulfonamide] gave a GI50 of 6.76 µM.

`O=S(=O)(NC1(c2cc(F)cc(F)c2)CCNCC1)c1ccc(OC(F)(F)F)cc1` [Example 2, N-(4-(3,5-difluorophenyl)piperidin-4-yl)-4-(trifluoromethoxy)benzenesulfonamide] returned a GI50 of 15.5 µM.

For the molecule `CN(C)CC(NC(=O)c1ccc(OC(F)(F)F)cc1)c1ccc(Cl)c(Cl)c1` (centres unmarked) [Example 31, N-(1-(3,4-dichlorophenyl)-2-(dimethylamino)ethyl)-4-(trifluoromethoxy)benzamide], the GI50 came to 41.9 µM.

`CN(C)CC(NC(=O)c1ccc(OC(F)(F)F)c([N+](=O)[O-])c1)c1ccc(Cl)c(Cl)c1` (centres unmarked) [Example 32, N-(1-(3,4-dichlorophenyl)-2-(dimethylamino)ethyl)-3-nitro-4-(trifluoromethoxy)benzamide] came in with a GI50 of 2.1 µM.

The molecule `O=S(=O)(NC1(c2ccc(F)c(F)c2)CCNC1)c1ccc(OC(F)(F)F)cc1` (centres unmarked) [Example 1, N-(3-(3,4-difluorophenyl)pyrrolidin-3-yl)-4-(trifluoromethoxy)benzenesulfonamide] returned a GI50 of 25.7 µM.

In turn, `CN(C)CC(c1ccc(Cl)c(Cl)c1)n1cnc(-c2ccc(OC(F)(F)F)cc2)c1` (centres unmarked) [Example 35, 2-(3,4-dichlorophenyl)-N,N-dimethyl-2-(4-(4-(trifluoromethoxy)phenyl)-1H-imidazol-1-yl)ethan-1-amine] gave a GI50 of 20.4 µM.

For the molecule `O=S(=O)(N[C@H](c1ccccc1)C1CCNCC1)c1ccc(OC(F)(F)F)cc1` [Example 12, (S)-N-(phenyl(piperidin-4-yl)methyl)-4-(trifluoromethoxy)benzenesulfonamide], the GI50 amounted to 27.1 µM.

In the case of `CN(C)CC(c1ccc(Cl)c(Cl)c1)n1cc(-c2ccc(OC(F)(F)F)cc2)cn1` (centres unmarked) [Example 34, 2-(3,4-dichlorophenyl)-N,N-dimethyl-2-(4-(4-(trifluoromethoxy)phenyl)-1H-pyrazol-1-yl)ethan-1-amine], it took 54.6 µM to inhibit growth by half (GI50).

`O=S(=O)(N[C@H](CN1CC(N2CCC2)C1)c1ccc(F)cc1)c1ccc(OC(F)(F)F)cc1` [Example 27, (S)-N-(2-([1,3′-biazetidin]-1′-yl)-1-(4-fluorophenyl)ethyl)-4-(trifluoromethoxy)benzenesulfonamide] came in with a GI50 of 24.4 µM.

`CC(C)Oc1ccc(S(=O)(=O)NCC2(c3ccccc3)CC2(C)C)cn1` (centres unmarked) [Example 29, N-((2,2-dimethyl-1-phenylcyclopropyl)methyl)-6-isopropoxypyridine-3-sulfonamide] showed a 50% growth inhibitory concentration (GI50) of 78.7 µM.

For `O=S(=O)(N[C@@H](c1ccccc1)C1CCNCC1)c1ccc(OC(F)(F)F)cc1` [Example 11, (R)-N-(phenyl(piperidin-4-yl)methyl)-4-(trifluoromethoxy)benzenesulfonamide], the concentration for 50% growth inhibition (GI50) worked out at 24.7 µM.

Consider `O=S(=O)(NC(CN1CCNCC1)c1ccc(F)cc1F)c1ccc(OC(F)(F)F)cc1` (centres unmarked) [Example 20, N-(1-(2,4-difluorophenyl)-2-(piperazin-1-yl)ethyl)-4-(trifluoromethoxy)benzenesulfonamide], for which the GI50 was determined as 27.1 µM.

The molecule `CC(C)Oc1ccc(S(=O)(=O)NC2(c3ccc(F)c(F)c3)CCNCC2)cn1` [Example 7, N-(4-(3,4-difluorophenyl)piperidin-4-yl)-6-isopropoxypyridine-3-sulfonamide] had a GI50 of 36.8 µM.

In turn, `CC(C)Oc1ccc(S(=O)(=O)N[C@H](c2ccc(Cl)cc2)C2CCNCC2)cn1` [Example 17, (S)-N-((4-chlorophenyl)(piperidin-4-yl)methyl)-6-isopropoxypyridine-3-sulfonamide] showed a GI50 of 26.4 µM.

For the molecule `O=S(=O)(NC1(c2ccccc2)CCC2(CC2)NC1)c1ccc(OC(F)(F)F)cc1` (centres unmarked) [Example 6, N-(6-phenyl-4-azaspiro[2.5]octan-6-yl)-4-(trifluoromethoxy)benzenesulfonamide], the GI50 was 57.5 µM.

Molecule `O=S(=O)(Nc1ccc(OC(F)(F)F)cc1)C1(c2ccccc2)CCNCC1` [Example 38, 4-phenyl-N-(4-(trifluoromethoxy)phenyl)piperidine-4-sulfonamide] returned a GI50 of 23 µM.

As for `FC(F)(F)Oc1ccc(-c2cnn(C3(c4ccccc4)CCNC3)c2)cc1` (centres unmarked) [Example 37, 1-(3-phenylpyrrolidin-3-yl)-4-(4-(trifluoromethoxy)phenyl)-1H-pyrazole], the GI50 is 30.5 µM.

In turn, `O=S(=O)(N[C@@H](c1ccc(Cl)cc1)C1CCNCC1)c1ccc(OC(F)(F)F)cc1` [Example 13, (R)-N-((4-chlorophenyl)(piperidin-4-yl)methyl)-4-(trifluoromethoxy)benzenesulfonamide] came in with a GI50 of 10 µM.

`CN(C)CC(NS(=O)(=O)c1ccc(Oc2cccc(C(F)(F)F)c2)cc1)c1ccc(Cl)c(Cl)c1` (centres unmarked) [Example 28, N-(1-(3,4-dichlorophenyl)-2-(dimethylamino)ethyl)-4-(3-(trifluoromethyl)phenoxy)benzenesulfonamide]: it took 14.4 µM to inhibit growth by half (GI50).

As for `O=C(NC1(c2ccc(Cl)cc2)CCNC1)c1ccc(OC(F)(F)F)cc1` (centres unmarked) [Example 33, N-(3-(4-chlorophenyl)pyrrolidin-3-yl)-4-(trifluoromethoxy)benzamide], the GI50 was found to be 23.3 µM.

Consider `O=S(=O)(N[C@H](c1ccc(Cl)cc1)C1CCNCC1)c1ccc(OC(F)(F)F)cc1` [Example 14, (S)-N-((4-chlorophenyl)(piperidin-4-yl)methyl)-4-(trifluoromethoxy)benzenesulfonamide], for which halving of growth (GI50) required 11.3 µM.

With `O=S(=O)(NC1(c2cc(Cl)ncc2Cl)CCNCC1)c1ccc(OC(F)(F)F)cc1` [Example 9, N-(4-(2,5-dichloropyridin-4-yl)piperidin-4-yl)-4-(trifluoromethoxy)benzenesulfonamide], the GI50 was 28.8 µM.

As for `O=S(=O)(N[C@H](CN1CCC[C@H](F)C1)c1ccc(F)cc1)c1ccc(OC(F)(F)F)cc1` [Example 26, N-((S)-1-(4-fluorophenyl)-2-((S)-3-fluoropiperidin-1-yl)ethyl)-4-(trifluoromethoxy)benzenesulfonamide], the 50% growth inhibitory concentration (GI50) was 47.5 µM.

As for `Nc1cc(S(=O)(=O)NC(CN2CCNCC2)c2ccc(Cl)cc2)ccc1OC(F)(F)F` (centres unmarked) [Example 23, 3-amino-N-(1-(4-chlorophenyl)-2-(piperazin-1-yl)ethyl)-4-(trifluoromethoxy)benzenesulfonamide], the GI50 was 30.8 µM.

Turning to `O=S(=O)(NC(CN1CCNCC1)c1ccc(F)c(F)c1)c1ccc(OC(F)(F)F)cc1` (centres unmarked) [Example 21, N-(1-(3,4-difluorophenyl)-2-(piperazin-1-yl)ethyl)-4-(trifluoromethoxy)benzenesulfonamide], the GI50 amounted to 33.8 µM.

Consider `CC(C)Oc1ccc(S(=O)(=O)N[C@@H](c2ccc(Cl)cc2)C2CCNCC2)cn1` [Example 16, (R)-N-((4-chlorophenyl)(piperidin-4-yl)methyl)-6-isopropoxypyridine-3-sulfonamide], for which it took 23.4 µM to inhibit growth by half (GI50).

For `FC(F)(F)Oc1ccc(-c2cn(C3(c4ccc(Cl)cc4)CCNC3)cn2)cc1` (centres unmarked) [Example 36, 1-(3-(4-chlorophenyl)pyrrolidin-3-yl)-4-(4-(trifluoromethoxy)phenyl)-1H-imidazole], the GI50 came to 25.2 µM.

The molecule `O=S(=O)(NC(c1ccccc1)C1CCNCC1)c1ccc(OC(F)(F)F)cc1` (centres unmarked) [Example 10, N-(phenyl(piperidin-4-yl)methyl)-4-(trifluoromethoxy)benzenesulfonamide] had a GI50 of 20.5 µM.

In turn, `CC(C)Oc1ccc(S(=O)(=O)NC(c2cc(Cl)cc(Cl)c2)C2CCCCC2)cn1` (centres unmarked) [Example 30, N-(cyclohexyl(3,5-dichlorophenyl)methyl)-6-isopropoxypyridine-3-sulfonamide] returned a GI50 of 22.8 µM.

Regarding `O=S(=O)(NC1(c2ccc(Cl)nc2)CCNCC1)c1ccc(OC(F)(F)F)cc1` [Example 3, N-(4-(6-chloropyridin-3-yl)piperidin-4-yl)-4-(trifluoromethoxy)benzenesulfonamide], the GI50 was determined as 69.9 µM.

`CNc1cc(S(=O)(=O)NC2(c3ccc(Cl)cc3)CCNCC2)ccc1OC(F)(F)F` [Example 8, N-(4-(4-chlorophenyl)piperidin-4-yl)-3-(methylamino)-4-(trifluoromethoxy)benzenesulfonamide] displayed a GI50 of 25.2 µM.

The molecule `CC(C)Oc1ccc(S(=O)(=O)NC(CN2CCNCC2)c2ccc(Cl)cc2)cn1` (centres unmarked) [Example 22, N-(1-(4-chlorophenyl)-2-(piperazin-1-yl)ethyl)-6-isopropoxypyridine-3-sulfonamide] had a GI50 of 51.1 µM.

For a further assay, the system named is HCC1937 cells. Nature of the assay: Cell viability assay (MTS), HCC1937 cell line. Format: cell-based. The settings on record: Homo sapiens, HCC1937 cell line (footnote a), 48 hours. The protocol:
HCC1937 cells are plated in a 96 well plate format at a density of 10,000 cells per well. After incubation overnight, cells are treated with a compound (e.g., compound 5) at the following concentrations: 80, 40, 20, 10, 5, 2.5, 1.25 μM. Compound concentrations are prepared in RPMI via serial dilutions from a starting stock of 80 mM. Forty-eight (48) hours after compound treatment, cell viability is assessed using the Promega CellTiter 96 aqueous one proliferation assay (Promega G3582, MTS assay) according to manufacturer's protocol.
as §1
For `CC(C)Oc1ccc(S(=O)(=O)N[C@H](c2ccccc2)C2CCNCC2)cn1` [Example 19, (S)-6-isopropoxy-N-(phenyl(piperidin-4-yl)methyl)pyridine-3-sulfonamide], the concentration for 50% growth inhibition (GI50) was determined as 74.5 µM.

Turning to `CC(C)Oc1ccc(S(=O)(=O)NC(CN2CCNCC2)c2ccc(F)c(F)c2)cn1` (centres unmarked) [Example 24, N-(1-(3,4-difluorophenyl)-2-(piperazin-1-yl)ethyl)-6-isopropoxypyridine-3-sulfonamide], the GI50 is 27 µM.

For `O=S(=O)(N[C@@H](CN1CCNCC1)c1ccc(Cl)cc1)c1ccccc1` [Example 25, (R)-N-(1-(4-chlorophenyl)-2-(piperazin-1-yl)ethyl)benzenesulfonamide], it took 40.6 µM to inhibit growth by half (GI50).
